Laboratory results as given in PubChem BioAssay (NCI).
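GI50: concentration for 50% inhibition of growth. TGI denotes the concentration required for complete inhibition of growth.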

Tests used:
Assay in all cases: NCI-60 cell line screen, 384-well format
[1] = tested on: NCI/ADR-RES ovarian
[2] = tested on: OVCAR-4 ovarian
[3] = tested on: NCI-H23 lung
[4] = tested on: SF-539 CNS
[5] = tested on: NCI-H460 NSCLC
[6] = tested on: HCT-15 colon
[7] = tested on: TK-10 renal
[8] = tested on: U251 glioblastoma
[9] = tested on: 786-0 renal
[10] = tested on: PC-3 prostate
[11] = tested on: SN12C renal
[12] = tested on: IGROV1 ovarian
[13] = tested on: KM12 colon
[14] = tested on: COLO 205 colon
[15] = tested on: OVCAR-3 ovarian
[16] = tested on: RXF 393 renal
[17] = tested on: HCC-2998 colon
[18] = tested on: SK-MEL-28 melanoma
[19] = tested on: HOP-92 NSCLC
[20] = tested on: SNB-75 CNS
[21] = tested on: HOP-62 NSCLC
[22] = tested on: M14 melanoma
[23] = tested on: NCI-H322M lung
[24] = tested on: A549 NSCLC
[25] = tested on: A498 renal
[26] = tested on: MDA-MB-231 breast
[27] = tested on: SF-295 CNS
[28] = tested on: CCRF-CEM leukemia
[29] = tested on: SK-MEL-2 melanoma
[30] = tested on: MOLT-4 leukemia
[31] = tested on: MDA-MB-468 breast
[32] = tested on: SNB-19 CNS
[33] = tested on: CAKI-1 renal
[34] = tested on: OVCAR-5 ovarian
[35] = tested on: MCF7 breast
[36] = tested on: HT29 colon
[37] = tested on: UACC-257 melanoma
[38] = tested on: MALME-3M melanoma
[39] = tested on: BT-549 breast
[40] = tested on: SR leukemia
[41] = tested on: SF-268 CNS
[42] = tested on: UACC-62 melanoma
[43] = tested on: RPMI-8226 leukemia
[44] = tested on: SW-620 colon
[45] = tested on: HS 578T breast
[46] = tested on: DU-145 prostate
[47] = tested on: OVCAR-8 ovarian
[48] = tested on: ACHN renal
[49] = tested on: T-47D breast
[50] = tested on: HL-60(TB) leukemia
[51] = tested on: NCI-H522 lung
[52] = tested on: SK-MEL-5 melanoma
[53] = tested on: MDA-MB-435 melanoma
[54] = tested on: SK-OV-3 ovarian
[55] = tested on: EKVX NSCLC
[56] = tested on: NCI-H226 lung

For `CN1CCc2cc3c(cc2C1O)OCO3` (configuration not stated), which GI50 [1] is on record?
The GI50 was over 100 µM.

What about the TGI [1] of the same compound?
The TGI was over 100 µM.

What about the GI50 [2] of the same compound?
Its GI50 is over 100 µM.

And the TGI [2]?
Its TGI is over 100 µM.

What about the GI50 [3] of the same compound?
Its GI50 is over 100 µM.

And the TGI [3]?
The TGI was over 100 µM.

And the GI50 [4]?
Its GI50 is over 100 µM.

What about the TGI [4] of the same compound?
The TGI was over 100 µM.

And the GI50 [5]?
Its GI50 is over 100 µM.

What about the TGI [5] of the same compound?
Its TGI is over 100 µM.

And the GI50 [6]?
Its GI50 is over 100 µM.

What about the TGI [6] of the same compound?
Its TGI is over 100 µM.

And the GI50 [7]?
The GI50 was over 100 µM.

And the TGI [7]?
Its TGI is over 100 µM.

And the GI50 [8]?
The GI50 was over 100 µM.

What about the TGI [8] of the same compound?
The TGI was over 100 µM.

And the GI50 [9]?
Its GI50 is over 100 µM.

What about the TGI [9] of the same compound?
The TGI was over 100 µM.

What about the GI50 [10] of the same compound?
The GI50 was over 100 µM.

And the TGI [10]?
Its TGI is over 100 µM.

What about the GI50 [11] of the same compound?
The GI50 was over 100 µM.

And the TGI [11]?
Its TGI is over 100 µM.

What about the GI50 [12] of the same compound?
The GI50 was over 100 µM.

What about the TGI [12] of the same compound?
The TGI was over 100 µM.

What about the GI50 [13] of the same compound?
The GI50 was over 100 µM.

And the TGI [13]?
Its TGI is over 100 µM.

And the GI50 [14]?
Its GI50 is over 100 µM.

What about the TGI [14] of the same compound?
Its TGI is over 100 µM.

What about the GI50 [15] of the same compound?
Its GI50 is over 100 µM.

And the TGI [15]?
Its TGI is over 100 µM.

What about the GI50 [16] of the same compound?
Its GI50 is over 100 µM.

And the TGI [16]?
The TGI was over 100 µM.

What about the GI50 [17] of the same compound?
Its GI50 is over 100 µM.

And the TGI [17]?
The TGI was over 100 µM.

And the GI50 [18]?
Its GI50 is over 100 µM.

And the TGI [18]?
Its TGI is over 100 µM.

What about the GI50 [19] of the same compound?
The GI50 was over 100 µM.

What about the TGI [19] of the same compound?
The TGI was over 100 µM.

And the GI50 [20]?
The GI50 was over 100 µM.

And the TGI [20]?
The TGI was over 100 µM.

And the GI50 [21]?
The GI50 was over 100 µM.

And the TGI [21]?
Its TGI is over 100 µM.

And the GI50 [22]?
The GI50 was over 100 µM.

What about the TGI [22] of the same compound?
The TGI was over 100 µM.

And the GI50 [23]?
Its GI50 is over 100 µM.

And the TGI [23]?
The TGI was over 100 µM.

And the GI50 [24]?
Its GI50 is over 100 µM.

What about the TGI [24] of the same compound?
Its TGI is over 100 µM.

And the GI50 [25]?
The GI50 was over 100 µM.

What about the TGI [25] of the same compound?
Its TGI is over 100 µM.

What about the GI50 [26] of the same compound?
Its GI50 is over 100 µM.

What about the TGI [26] of the same compound?
Its TGI is over 100 µM.

And the GI50 [27]?
The GI50 was over 100 µM.

What about the TGI [27] of the same compound?
Its TGI is over 100 µM.

What about the GI50 [28] of the same compound?
Its GI50 is over 100 µM.

And the TGI [28]?
Its TGI is over 100 µM.

What about the GI50 [29] of the same compound?
The GI50 was over 100 µM.

What about the TGI [29] of the same compound?
Its TGI is over 100 µM.

What about the GI50 [30] of the same compound?
Its GI50 is over 100 µM.

What about the TGI [30] of the same compound?
Its TGI is over 100 µM.

And the GI50 [31]?
Its GI50 is over 100 µM.

And the TGI [31]?
Its TGI is over 100 µM.

And the GI50 [32]?
Its GI50 is over 100 µM.

And the TGI [32]?
Its TGI is over 100 µM.

And the GI50 [33]?
Its GI50 is over 100 µM.

What about the TGI [33] of the same compound?
The TGI was over 100 µM.

What about the GI50 [34] of the same compound?
Its GI50 is over 100 µM.

What about the TGI [34] of the same compound?
Its TGI is over 100 µM.

And the GI50 [35]?
The GI50 was over 100 µM.

And the TGI [35]?
Its TGI is over 100 µM.

And the GI50 [36]?
Its GI50 is over 100 µM.

What about the TGI [36] of the same compound?
Its TGI is over 100 µM.

And the GI50 [37]?
The GI50 was over 100 µM.

And the TGI [37]?
Its TGI is over 100 µM.

And the GI50 [38]?
The GI50 was over 100 µM.

And the TGI [38]?
The TGI was over 100 µM.

And the GI50 [39]?
The GI50 was over 100 µM.

What about the TGI [39] of the same compound?
The TGI was over 100 µM.

What about the GI50 [40] of the same compound?
Its GI50 is over 100 µM.

And the TGI [40]?
The TGI was over 100 µM.

And the GI50 [41]?
Its GI50 is over 100 µM.

What about the TGI [41] of the same compound?
The TGI was over 100 µM.

And the GI50 [42]?
Its GI50 is over 100 µM.

What about the TGI [42] of the same compound?
Its TGI is over 100 µM.

What about the GI50 [43] of the same compound?
The GI50 was over 100 µM.

And the TGI [43]?
The TGI was over 100 µM.

What about the GI50 [44] of the same compound?
Its GI50 is over 100 µM.

And the TGI [44]?
The TGI was over 100 µM.

And the GI50 [45]?
The GI50 was over 100 µM.

What about the TGI [45] of the same compound?
The TGI was over 100 µM.

What about the GI50 [46] of the same compound?
Its GI50 is over 100 µM.

And the TGI [46]?
Its TGI is over 100 µM.

And the GI50 [47]?
Its GI50 is over 100 µM.

What about the TGI [47] of the same compound?
The TGI was over 100 µM.

And the GI50 [48]?
The GI50 was over 100 µM.

What about the TGI [48] of the same compound?
Its TGI is over 100 µM.

What about the GI50 [49] of the same compound?
Its GI50 is over 100 µM.

And the TGI [49]?
The TGI was over 100 µM.

And the GI50 [50]?
Its GI50 is over 100 µM.

What about the TGI [50] of the same compound?
Its TGI is over 100 µM.

What about the GI50 [51] of the same compound?
The GI50 was over 100 µM.

And the TGI [51]?
Its TGI is over 100 µM.

And the GI50 [52]?
The GI50 was over 100 µM.

And the TGI [52]?
The TGI was over 100 µM.

And the GI50 [53]?
Its GI50 is over 100 µM.

And the TGI [53]?
Its TGI is over 100 µM.

And the GI50 [54]?
Its GI50 is over 100 µM.

And the TGI [54]?
The TGI was over 100 µM.

What about the GI50 [55] of the same compound?
The GI50 was over 100 µM.

And the TGI [55]?
Its TGI is over 100 µM.

And the GI50 [56]?
The GI50 was over 100 µM.

And the TGI [56]?
Its TGI is over 100 µM.
